Assay results from patent publication US8420675B2, “Aminotetrahydroindazoloacetic acids” (Hoffmann-La Roche Inc., priority 2008, dated 2013).
pIC50: −log10 of the molar value.

Molecular target: T1, human CRTH2 (Homo sapiens, UniProt Q9Y5Y4)
T1 construct: expressed in transfected cells
T1 sequence (Q9Y5Y4 1-395): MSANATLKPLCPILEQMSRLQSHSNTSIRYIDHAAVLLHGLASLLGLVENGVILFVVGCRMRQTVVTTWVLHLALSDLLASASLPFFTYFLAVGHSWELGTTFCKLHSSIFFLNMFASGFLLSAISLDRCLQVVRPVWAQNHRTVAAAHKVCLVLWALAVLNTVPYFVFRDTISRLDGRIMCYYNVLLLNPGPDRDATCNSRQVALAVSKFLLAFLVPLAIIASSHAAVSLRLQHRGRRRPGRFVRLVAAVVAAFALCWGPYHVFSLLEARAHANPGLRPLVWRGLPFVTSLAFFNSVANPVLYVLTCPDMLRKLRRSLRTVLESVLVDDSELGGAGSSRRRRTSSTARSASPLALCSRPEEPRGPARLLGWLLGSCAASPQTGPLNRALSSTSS
Test: Human CRTH2 Receptor Binding Assay (whole cell, [3H]ramatroban competition)
Conditions: CHO-K1 cells expressing human CRTH2 and G-alpha16; 20 nM [3H]ramatroban; 1 hour, room temperature
Outline: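 CHO-K1 cells stably co-expressing human CRTH2 and G-alpha16, 1.5×10^5 per reaction, incubated 1 hour at room temperature with 20 nM [3H]ramatroban in PBS containing 10 mM MgCl2 and 0.06% BSA. Non-specific binding defined with 10 μM 15(R)-15-methyl PGD2. IC50 from 7 concentrations by 4-parameter logistic fit of specific binding inhibition.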

| pIC50 | Compound |
| --- | --- |
| 8.29 | CC(C)c1cccc(-c2ccc(S(=O)(=O)N[C@@H]3CCCc4c3cnn4CC(=O)O)cc2)c1 [Example 10-27a, [(R)-4-(3′-Isopropyl-biphenyl-4-sulfonylamino)-4,5,6,7-tetrahydro-indazol-1-yl]-acetic acid] |
| 8.02 | CN([C@@H]1CCCc2c1cnn2CC(=O)O)S(=O)(=O)c1ccc(Oc2ccccc2)c(Cl)c1 [Example 9-13a, {(R)-4-[(3-Chloro-4-phenoxy-benzenesulfonyl)-methyl-amino]-4,5,6,7-tetrahydro-indazol-1-yl}-acetic acid] |
| 8.34 | CN([C@@H]1CCCc2c1cnn2CC(=O)O)S(=O)(=O)c1ccc(Oc2ccc(C#N)cc2)c(Cl)c1 [Example 9-34a, ((R)-4-{[3-Chloro-4-(4-cyano-phenoxy)-benzenesulfonyl]-methyl-amino}-4,5,6,7-tetrahydro-indazol-1-yl)-acetic acid] |
| 7.44 | O=C(O)Cn1ncc2c1CCCC2NS(=O)(=O)c1cc(Oc2ccccc2)cc(C(F)(F)F)c1 (stereo not drawn) [Example 5-4a, [4-(3-Phenoxy-5-trifluoromethyl-benzenesulfonylamino)-4,5,6,7-tetrahydro-indazol-1-yl]-acetic acid] |
| 8.36 | CN([C@@H]1CCCc2c1cnn2CC(=O)O)S(=O)(=O)c1ccc(Oc2ccc(F)cc2)c(Cl)c1 [Example 9-14a, ((R)-4-{[3-Chloro-4-(4-fluoro-phenoxy)-benzenesulfonyl]-methyl-amino}-4,5,6,7-tetrahydro-indazol-1-yl)-acetic acid] |
| 7.24 | O=C(O)Cn1ncc2c1CCCC2NS(=O)(=O)c1ccc(-c2cccc(OC(F)(F)F)c2)cc1 (stereo not drawn) [Example 10-14a, [4-(3′-Trifluoromethoxy-biphenyl-4-sulfonylamino)-4,5,6,7-tetrahydro-indazol-1-yl]-acetic acid] |
| 7.15 | O=C(O)Cn1ncc2c1CCCC2NS(=O)(=O)c1ccc(-c2ccccc2)c(C(F)(F)F)c1 (stereo not drawn) [Example 10-9a, [4-(2-Trifluoromethyl-biphenyl-4-sulfonylamino)-4,5,6,7-tetrahydro-indazol-1-yl]-acetic acid] |
| 6.41 | O=C(O)Cn1ncc2c1CCCC2NS(=O)(=O)c1cnc(Oc2ccc(C(F)(F)F)cc2)c(Br)c1 (stereo not drawn) [Example 2-7a, {4-[5-Bromo-6-(4-trifluoromethyl-phenoxy)-pyridine-3-sulfonylamino]-4,5,6,7-tetrahydro-indazol-1-yl}-acetic acid] |
| 7.99 | N#Cc1ccc(Oc2ncc(S(=O)(=O)NC3CCCc4c3cnn4CC(=O)O)cc2Br)cc1 (stereo not drawn) [Example 2-4a, {4-[5-Bromo-6-(4-cyano-phenoxy)-pyridine-3-sulfonylamino]-4,5,6,7-tetrahydro-indazol-1-yl}-acetic acid] |
| 8.21 | CN([C@@H]1CCCc2c1cnn2CC(=O)O)S(=O)(=O)c1cnc(Oc2ccc(F)cc2F)c(Br)c1 [Example 6-7a, ((R)-4-{[5-Bromo-6-(2,4-difluoro-phenoxy)-pyridine-3-sulfonyl]-methyl-amino}-4,5,6,7-tetrahydro-indazol-1-yl)-acetic acid] |
| 6.69 | O=C(O)Cn1ncc2c1CCCC2NS(=O)(=O)c1ccc(Oc2cccc(Cl)c2)cc1 (stereo not drawn) [Example 5-2a, {4-[4-(3-Chloro-phenoxy)-benzenesulfonylamino]-4,5,6,7-tetrahydro-indazol-1-yl}-acetic acid] |
| 8.18 | CN([C@@H]1CCCc2c1cnn2CC(=O)O)S(=O)(=O)c1cnc(Oc2ccccc2Cl)c(Br)c1 [Example 6-2a, ((R)-4-{[5-Bromo-6-(2-chloro-phenoxy)-pyridine-3-sulfonyl]-methyl-amino}-4,5,6,7-tetrahydro-indazol-1-yl)-acetic acid] |
| 8.19 | COc1cc(F)ccc1Oc1ncc(S(=O)(=O)N(C)[C@@H]2CCCc3c2cnn3CC(=O)O)cc1Br [Example 6-13a, ((R)-4-{[5-Bromo-6-(4-fluoro-2-methoxy-phenoxy)-pyridine-3-sulfonyl]-methyl-amino}-4,5,6,7-tetrahydro-indazol-1-yl)-acetic acid] |
| 8.17 | COc1ccc(Oc2ccc(S(=O)(=O)N(C)[C@@H]3CCCc4c3cnn4CC(=O)O)cc2Cl)cc1 [Example 9-31a, ((R)-4-{[3-Chloro-4-(4-methoxy-phenoxy)-benzenesulfonyl]-methyl-amino}-4,5,6,7-tetrahydro-indazol-1-yl)-acetic acid] |
| 7.56 | O=C(O)Cn1ncc2c1CCC[C@H]2NS(=O)(=O)c1ccc(Oc2ccccc2Cl)cc1 [Example 1-1a, {(R)-4-[4-(2-Chloro-phenoxy)-benzenesulfonylamino]-4,5,6,7-tetrahydro-indazol-1-yl}-acetic acid] |
| 6.82 | CC(=O)c1cccc(-c2ccc(S(=O)(=O)NC3CCCc4c3cnn4CC(=O)O)cc2)c1 (stereo not drawn) [Example 10-22a, [4-(3′-Acetyl-biphenyl-4-sulfonylamino)-4,5,6,7-tetrahydro-indazol-1-yl]-acetic acid] |
| 7.42 | CN([C@@H]1CCCc2c1cnn2CC(=O)O)S(=O)(=O)c1cc(Cl)c(Oc2ccc(F)cc2)cc1F [Example 9-30a, ((R)-4-{[5-Chloro-2-fluoro-4-(4-fluoro-phenoxy)-benzenesulfonyl]-methyl-amino}-4,5,6,7-tetrahydro-indazol-1-yl)-acetic acid] |
| 7.89 | COc1cc(F)ccc1Oc1ccc(S(=O)(=O)N(C)[C@@H]2CCCc3c2cnn3CC(=O)O)cc1Cl [Example 9-17a, ((R)-4-{[3-Chloro-4-(4-fluoro-2-methoxy-phenoxy)-benzenesulfonyl]-methyl-amino}-4,5,6,7-tetrahydro-indazol-1-yl)-acetic acid] |
| 6.79 | O=C(O)Cn1ncc2c1CCCC2NS(=O)(=O)c1cccc(Oc2ccccc2)c1 (stereo not drawn) [Example 1-5a, [4-(3-Phenoxy-benzenesulfonylamino)-4,5,6,7-tetrahydro-indazol-1-yl]-acetic acid] |
| 8.34 | CN([C@@H]1CCCc2c1cnn2CC(=O)O)S(=O)(=O)c1cnc(Oc2ccc(Cl)cc2Cl)c(Br)c1 [Example 6-4a, ((R)-4-{[5-Bromo-6-(2,4-dichloro-phenoxy)-pyridine-3-sulfonyl]-methyl-amino}-4,5,6,7-tetrahydro-indazol-1-yl)-acetic acid] |
| 7.88 | O=C(O)Cn1ncc2c1CCC[C@H]2NS(=O)(=O)c1ccc(-c2cccc(C(F)(F)F)c2)cc1 [Example 10-25a, [(R)-4-(3′-Trifluoromethyl-biphenyl-4-sulfonylamino)-4,5,6,7-tetrahydro-indazol-1-yl]-acetic acid] |
| 8.14 | O=C(O)Cn1ncc2c1CCCC2NS(=O)(=O)c1cnc(Oc2ccc(Cl)cc2)c(Br)c1 (stereo not drawn) [Example 2-1a, {4-[5-Bromo-6-(4-chloro-phenoxy)-pyridine-3-sulfonylamino]-4,5,6,7-tetrahydro-indazol-1-yl}-acetic acid] |
| 7.18 | O=C(O)Cn1ncc2c1CCCC2NS(=O)(=O)c1cc(-c2ccccc2)cc(C(F)(F)F)c1 (stereo not drawn) [Example 10-16a, [4-(5-Trifluoromethyl-biphenyl-3-sulfonylamino)-4,5,6,7-tetrahydro-indazol-1-yl]-acetic acid] |
| 8.17 | CN([C@@H]1CCCc2c1cnn2CC(=O)O)S(=O)(=O)c1ccc(Oc2ccc(Br)cc2)c(Cl)c1 [Example 9-23a, ((R)-4-{[4-(4-Bromo-phenoxy)-3-chloro-benzenesulfonyl]-methyl-amino}-4,5,6,7-tetrahydro-indazol-1-yl)-acetic acid] |
| 8.10 | Cc1cc(F)ccc1Oc1ccc(S(=O)(=O)N(C)[C@@H]2CCCc3c2cnn3CC(=O)O)cc1Cl [Example 9-38a, ((R)-4-{[3-Chloro-4-(4-fluoro-2-methyl-phenoxy)-benzenesulfonyl]-methyl-amino}-4,5,6,7-tetrahydro-indazol-1-yl)-acetic acid] |
| 8.13 | CN([C@@H]1CCCc2c1cnn2CC(=O)O)S(=O)(=O)c1ccc(Oc2ccc(Cl)cc2)c(F)c1 [Example 9-12a, ((R)-4-{[4-(4-Chloro-phenoxy)-3-fluoro-benzenesulfonyl]-methyl-amino}-4,5,6,7-tetrahydro-indazol-1-yl)-acetic acid] |
| 8.14 | CN([C@@H]1CCCc2c1cnn2CC(=O)O)S(=O)(=O)c1ccc(-c2cccc(C(F)(F)F)c2)cc1 [Example 11-1a, {(R)-4-[Methyl-(3′-trifluoromethyl-biphenyl-4-sulfonyl)-amino]-4,5,6,7-tetrahydro-indazol-1-yl}-acetic acid] |
| 7.83 | CN([C@@H]1CCCc2c1cnn2CC(=O)O)S(=O)(=O)c1ccc(Oc2ccccc2F)c(Cl)c1 [Example 9-37a, ((R)-4-{[3-Chloro-4-(2-fluoro-phenoxy)-benzenesulfonyl]-methyl-amino}-4,5,6,7-tetrahydro-indazol-1-yl)-acetic acid] |
| 8.54 | CN([C@@H]1CCCc2c1cnn2CC(=O)O)S(=O)(=O)c1cc(C(F)(F)F)cc(S(=O)(=O)c2ccc(Cl)cc2)c1 [Example 13-1a, ((R)-4-{[3-(4-Chloro-benzenesulfonyl)-5-trifluoromethyl-benzenesulfonyl]-methylamino}-4,5,6,7-tetrahydro-indazol-1-yl)-acetic acid] |
| 7.58 | CN([C@@H]1CCCc2c1cnn2CC(=O)O)S(=O)(=O)c1cnc(Oc2cc(Cl)cc(Cl)c2)c(Br)c1 [Example 6-3a, ((R)-4-{[5-Bromo-6-(3,5-dichloro-phenoxy)-pyridine-3-sulfonyl]-methyl-amino}-4,5,6,7-tetrahydro-indazol-1-yl)-acetic acid] |
